The results in this text go back to patent US11458198B2, “HPV epitopes targeted by T cells infiltrating cervical malignancies for use in vaccines” (Academisch Ziekenhuis Leiden H.O.D.N. LUMC, priority 2007, dated 2022).

Type in all cases: cell-based, human
In assay [1] the test system is skin test infiltrating lymphocytes. As to the kind of experiment: Intracellular cytokine staining of T cell cultures from positive skin reaction sites. An excerpt: Skin tests, based on Delayed Type Hypersensitivity reactions (DTH), can be used as a sensitive and simple method for in vivo measurement of HPV-specific cellular immune responses (Hopfl, 2000; Hopfl, 1991). The skin test preparations consisted of 8 pools of long clinical-grade synthetic peptides spanning the whole HPV 16 E6 and E7 protein and the most immunogenic regions of HPV 16 E2 protein (de Jong, 2004). These clinical grade peptides were produced in the interdivisional GMP-Facility of the LUMC. Each pool of the skin test consisted of 2 or 3 synthetic peptides, indicated by the first and last amino acid of the region in the protein covered by the peptides. Pool 1: E231-60, E246-75, Pool 2: E2301-330, E2316-345, Pool 3: E61-31, E619-50 (SEQ ID NO: 28), Pool 4: E641-65 (SEQ ID NO: 29), E655-80 (SEQ ID NO: 30), E671-95 (SEQ ID NO: 31), Pool 5: E685-109 (SEQ ID NO: 32), E691-122 (SEQ ID NO: 33), Pool 6: E6109-140 (SEQ ID NO: 34), E6127-158 (SEQ ID NO: 35), Pool 7: E71-35 (SEQ ID NO: 36), E722-56 (SEQ ID NO: 37), Pool 8: E743-77 (SEQ ID NO: 38), E764-98 (SEQ ID NO: 39). Pool 3 comprises Seq ID 5, 22 and 23. Pool 4 comprises Seq IDs 7-9. Pool 5 comprises Seq IDs 11 and 12. Pool 6 comprises Seq IDs 13, 14, 24 and 25. Pool 7 comprises Seq ID 15 and 26. Pool 8 comprises Seq IDs 16 and 17. Per peptide pool 0.05 ml of 0.2 mg/ml peptides in 16% DMSO in 20 mM isotonic phosphate buffer (10 μg/peptide) was injected intracutaneously. The pools of peptides and a negative control (dissolvent only) were injected separately at individual skin test sites of the upper arm. Skin test sites were inspected at least three times, at 72 hours and 7 days after injection (Hopfl) of the peptides and at 3 weeks following the first report of a very late skin reaction in one of the first healthy subjects. […]
The specificity and character of the T cell cultures derived from positive skin reaction sites was tested by ICS as reported previously (de Jong, 2005). […] After incubation at 4° C., the cells were washed, fixed with 1% paraformaldehyde and analyzed by flow cytrometry (FACSscan, BD Biosciences)

In assay [2] the test system is HPV-specific T cell cultures. As to the kind of experiment: Intracellular cytokine staining for IFNγ, type of T cell responding. The conditions noted are these: TIL culture of C265. How it is done:
(§1) Enumeration of IFNγ producing T cells as measured by intracellular cytokine staining was performed as described earlier (de Jong et al. 2005). Briefly, APC were loaded with cognate peptide or recombinant protein and incubated with T cell cultures. After 1 hour of incubation 10 μg/ml Brefeldin A (Sigma) was added and incubated overnight. Hereafter the cells were fixed with 4% paraformaldehyde (Sigma) and permeabilized with 0.1% Saponin. The samples were subsequently stained with CD4-APC, CD8-PerCP and IFNγ-PE and analyzed by flow cytometry. The minimal peptide recognized by CD8 T cells was analysed by IFNγ ELISPOT (van der Burg et al. 2001, Welters et al. 2006, de Jong et al. 2002). CD8 T cell lines were seeded in triplicate wells at a density of 2×104 on a Multiscreen 96-well plate (Millipore, Etten-Leur, The Netherlands) coated with an IFNγ catch antibody (Mabtech. Nacha, Sweden). The microcultures were stimulated with 5 μg/ml 10-mer peptides and incubated overnight. Analysis of HLA restriction of CD8 T cells was performed using 5 μg/ml 10-mer peptide pulsed PBMC or B-LCL co-cultured with equal numbers of T cells. IFNγ specific spots were stained according to the instructions of the manufacturer (Mabtech). The number of spots was analysed on a fully automated computer assisted video imaging system (BIOSYS).

For assay [3], the system named is HPV-specific T cells. Description: Fine specificity with single peptides (proliferation and IFNγ production). The conditions noted are these: patients C265, C334, C284, C228 respectively. How it is done: T cell cultures (25,000-50,000 cells/well) were tested on pulsed autologous monocytes or irradiated autologous EBVs for the recognition of HPV16 and 18 E6 and E7 peptides (5 μg/ml) and protein (10 μg/ml) in triplicate in a 3 day proliferation assay. After 48 hours supernatant was harvested and stored at −20° C. for cytokine analysis. During the last 16 hours of culture 0.5 μCi/well [^3H]thymidine was added to measure proliferation (van der Burg et al. 2001). Antigen specific IFNγ production was measured by ELISA as described earlier (van der Burg et al. 1999).
Following the evaluation of HPV-specific reactivity, the 19 responding T cell lines were expanded by stimulation with cognate peptide, cytokine mix and feeder cells. Fifteen of these HPV-specific cultures could be sufficiently expanded for further analysis. The fine specificity of the HPV-specific T cells was determined in short-term stimulation assays using single peptides. Five cultures recognized 2 or more distinct peptides, whereas the other 10 cultures recognized a single peptide (FIG. 1B, Table 1). To assess the type of T cell that responded to antigenic stimulation, the T cell cultures were stimulated with their cognate peptide and protein antigens and the response was analyzed by intra-cellular IFNγ staining (FIG. 2). The majority of the TIL cultures contained HPV-specific CD4+ infiltrating T lymphocytes (n=13 patients, 13 different peptides recognized), whereas HPV-specific CD8^+ T cells infiltrating lymphocytes were found in 6 cultures. In 9 of the HPV-specific T cell lines only a CD4^+ T cell response was detected, in 4 T cell lines both CD4^+ T cells and CD8^+ T cells reacted and in 2 T cell lines only a CD8 T cells response was detected (Table 1, FIG. 2).

In assay [4] the test system is HPV-specific CD4+ and CD8+ T cells. Description: HLA restriction and minimal epitope (blocking antibodies, partially HLA matched APC, IFNγ ELISPOT). The conditions noted are these: HLA-A*0201-restricted tumor-infiltrating CD8+ T cells. Here is the method: MHC class II blocking experiments were performed as reported before using murine monoclonal antibodies against HLA-DR (B8.11.2), HLA-DQ (SPV.L3) and HLA-DP (B7/21) (van der Burg et al. 1999). Peptide-pulsed APC were incubated with anti-MHC class II antibodies for 2 hours prior to the addition of T cells.
as §1, with “Analysis of HLA restriction of CD8 T cells was performed using 5 μg/ml 10-mer peptide pulsed PBMC or B-LCL co-cultured with equal numbers of T cells. IFNγ specific spots were stained according to the instructions of the manufacturer (Mabtech).” left out, “(BIOSYS). […]” for “(BIOSYS).”

On to “E6127-158: HPV16 E6 amino acids 127-158, clinical-grade long peptide (DKKQRFHNIRGRWTGRCMSCCRSSRTRRETQL; Human papillomavirus type 16)”, for which, in assay [1] (HD2, biopsy of pool 6), the “response of CD8+ T cells isolated from the biopsy” value (“response of CD8+ T cells isolated” for short) is reported as “responded”.

For “HPV16 E6 41-62: 22-mer peptide, amino acids 41-62 of HPV16 E6 (KQQLLRREVYDFAFRDLCIVYR; UniProt P03126 41-62, looked up, fragment)”, the “type of T cell responding, intracellular IFNγ (FIG. 2)” value in assay [2] was “CD4^+ and CD8^+ T cell response”.

Consider “HPV16E7 peptide 71-92: 22-mer peptide, amino acids 71-92 of HPV16 E7 (STHVDIRTLEDLLMGTLGIVCP; UniProt P03129 71-92, looked up, fragment)”, for which the “response of bulk culture to single peptide, proliferation and IFNγ production (FIG. 1B)” value (from here on “response of bulk culture”) in assay [3] is “responded”.

On to “HPV16E6 peptide 137-158: 22-mer peptide, amino acids 137-158 of HPV16 E6 (GRWTGRCMSCCRSSRTRRETQL; UniProt P03126 137-158, looked up, fragment)”, for which the “response of bulk culture” value in assay [3] is listed as “responded”.

Turning to “HPV16 E6109-140: HPV16 E6 amino acids 109-140, clinical-grade long peptide (RCINCQKPLCPEEKQRHLDKKQRFHNIRGRWT; Human papillomavirus type 16)”, in assay [1] (HD2, biopsy of pool 6), the “response of CD8+ T cells isolated” value is “responded”.

Regarding “HPV16E6.37-68: amino acids 37-68 of HPV16 E6 protein (CVYCKQQLLRREVYDFAFRDLCIVYRDGNPYA; Human papillomavirus type 16)”, the “response of bulk culture” value in assay [3] was “responded”. In addition, the “response of CD8+ T cells isolated” value in assay [1] (subjects HD15 and HD16) was “responded”.

Consider “HPV18E7.21-42: amino acids 21-42 of HPV18 E7 protein (IPVDLLCHEQLSDSEEENDEID; Human papillomavirus type 18)”, for which the “response of bulk culture” value in assay [3] is recorded as “responded”.

As to “HPV16E7.11-19: amino acids 11-19 of HPV16 E7 protein (IVLHLEPQN; Human papillomavirus type 16)”, in assay [4], the “reactivity of CD8+ T cells compared with HPV16 E7.11-20” value is reported as “stronger reactivity”.
